Measurements from article PMC11137182, “Selective and brain-penetrant ACSS2 inhibitors target breast cancer brain metastatic cells” (Frontiers in Pharmacology, 2024).
Read-outs that look alike come from different tables or passages of the source.

How the values were obtained:
MDA-MB-231BR cells = assay: Clonogenic survival assay; format: cell-based; details: 100 μM, 48 h treatment, 10 days growth
Protocol: Triple-negative brain trophic cells MDA-MB-231BR and 4T1BR cells were a kind gift from Dr. Patricia Steeg (Center for Cancer Research, National Cancer Institute) ([Achrol et al., 2019]). Both cell lines were cultured in DMEM supplemented with 10% fetal bovine serum (FBS), 5% 10,000 Units/mL Penicillin-10,000 μg/mL Streptomycin, and 5% 200 mM L-Glutamine. For crystal violet staining, 5 × 10^4 cells were plated and subjected to the treatments as described in the individual figures and then stained with 0.5% crystal violet prepared in a 1:1 methanol-water solution followed by PBS washes. ACSS2 inhibitors were dissolved in 100% ultra-pure DMSO.
To assess clonogenic survival, 1 × 10^5 cells were seeded into a 6-well plate until 70%–80% confluency and treated for 48 h with analogs at 100 uM (unless otherwise stated in the figure legend). After 48 h, cells were trypsinized and counted using hemocytomer, and 1 × 10^4 cells per treatment were plated into a 6-well plate with fresh culture medium and allowed to grow for 10 days. Following 10-day incubation, cells were washed twice with PBS, stained with crystal violet for 30 min, and washed with dH2O twice. Colonies >50mircons were counted. For crystal violet staining, 0.5% crystal violet was prepared in a 1:1 methanol-water solution.

ACSS2 [1] = target: T1, ACSS2 (Homo sapiens, UniProt Q9NR19); assay: SPR binding to immobilized ACSS2; details: mean; for koff / kon: 1:1 binding model
T1 construct: His-tag (N); His-tag (C); made in house; host or cells: E. coli BL21 (DE3) RIL
Protocol: Overproduction of ACSS2 was achieved using a prokaryotic expression system. […] The bacterial expressions were then spun down, the supernatant discarded, and the pellets resuspended in 50 mM Tris HCl pH8.0, 800 mM NaCl, 5 mM Imidazole, 2 mM MgCl2, 10% Glycerol, 0.1 mg/mL Lysozyme, 1 mM Protease inhibitor (PMSF). After the cells were lysed via sonication, the sample was subjected to ultracentrifugation, and the clarified lysate was applied to a 5 mL Talon cobalt resin affinity column (Clonetech Laboratories, Mountain View, CA). The bound protein was washed with 300 mL wash buffer 1 (20 mM Tris HCl pH8.0, 800 mM NaCl, 15 mM Imidazole, 5 mM MgCl2, 10% Glycerol, 0.1% CHAPS) and 300 mL wash buffer 2 (20 mM Tris HCl pH8.0, 400 mM NaCl, 18 mM Imidazole, 5 mM MgCl2, 10% Glycerol) prior elution with 20 mM Tris HCl pH8.0, 400 mM NaCl, 300 mM Imidazole, 2 mM MgCl2, 5% Glycerol. Eluted ACSS2 was then dialyzed overnight into 20 mM Tris HCl pH8.0, 150 mM NaCl, 5% Glycerol, concentrated and applied to a Superdex S-200 (16/600) using the same buffer without Glycerol. ACSS2 fractions were pooled, concentrated to 3 mg/mL, aliquoted, and stored at −80°C. hACSS1 was obtained from a commercial vendor (www.mybiosource.com).
All binding assays were performed on a ProteOn XPR36 SPR Protein Interaction Array System (Bio-Rad Laboratories, Hercules, CA, United States). The instrument temperature was set at 25°C for all kinetic analyses. ProteOn GLH sensor chips were preconditioned with two short pulses each (10 s) of 50 mM NaOH, 100 mM HCl, and 0.5% sodium […]. Then, the system was equilibrated with running buffer (1x PBS pH 7.4, 3% DMSO, and 0.005% polysorbate 20). The surface of a GLH sensor chip was activated with a 1:100 dilution of a 1:1 mixture of 1-ethyl-3-(3-dimethylaminopropyl) carbodiimide hydrochloride (0.2 M) and sulfo-N-hydroxysuccinimide (0.05 M). Immediately after chip activation, the human ACSS2 or hACSS1 proteins were prepared at a concentration of 10 μg/mL in 10 mM sodium acetate, pH 5.5, and injected across ligand flow channels for 5 min at a flow rate of 30 μL/min. Then, after unreacted protein had been washed out, excess active ester groups on the sensor surface were capped by a 5 min injection of 1M ethanolamine HCl (pH 8.0) at a flow rate of 5 μL/min. A reference surface was similarly created by immobilizing a nonspecific protein (IgG b12 anti-HIV-1 gp120; was obtained through the NIH AIDS Reagent Program, Division of AIDS, NIAID, NIH: Anti-HIV-1 gp120 Monoclonal (IgG1 b12) from Dr. Dennis Burton and Carlos Barbas) and was used as a background to correct nonspecific binding. […] Data were analyzed using the ProteOn Manager Software version 3.0 (Bio-Rad). The responses from the reference flow cell were subtracted to account for the nonspecific binding and injection artifacts. Experimental data were fitted to a simple 1:1 binding model. Experiments were performed in triplicate to detect kinetic and equilibrium dissociation constants (KD).

[2] = Human liver microsome stability; details: for half-life: Human Liver Microsome Stability T1/2, human liver microsomes
ACSS2 [3] = target: T1, ACSS2; assay: Fluorescence polarization-based ACSS2 biochemical assay (ATP to AMP conversion); details: 100 nM ACSS2, triplicate, ± SD; read-out: IC50, inhibition of ATP to AMP conversion of ACSS2
Protocol: ACSS2 enzyme activity was measured using the TranScreener AMP^2/GMP^2 Assay Kit—FP Readout assay (BellBrook Labs). The assay was performed in white, opaque, 96-well plates. […] ACSS2 was used in assay buffer (30 mM HEPES, pH 7.4, 140 mM NaCl, 2 mM MgCl2, 5 mM sodium acetate, 2 mM DTT, 0.05% CHAPS). Substrate mix was added, followed by a 60-min incubation. Final substrate concentrations were 5 mM acetate, 50 μM ATP, and 5 μM CoA. After incubation, conjugated AMP antibody and AMP tracer were added according to the methods described by BellBrook Labs. After 30 min, the FP signal was measured using a Tecan Spark multimode microplate reader. In the analysis, data were normalized to represent the percentage inhibition of ATPase activity.

MDR1 (P-gp) = assay: Bi-directional permeability across MDR1-MDCK cell monolayer (BBB assay); format: in vitro ADME, canine; details: dog; MDR1-MDCK I monolayer, A to B
From the text: This assay provides the apparent permeability coefficient (Papp), efflux ratio, and % recovery to assess compound permeation.

FASN = assay: Immunoblot of FASN protein levels; format: cell-based; details: MDA-MB-231BR cells, 24 h
Protocol: Immunoblotting protocols have been previously described. Briefly, cell lysates from one to five x 10^6 cells were prepared in radioimmune precipitation assay buffer (150 mM NaCl, 1% NP40, 0.5% DOC, 50 mM Tris HCL at pH 8, 0.1% SDS, 10% glycerol, 5 mM EDTA, 20 mM NaF, and 1 mM Na3VO4) supplemented with 1 μg/mL each of pepstatin, leupeptin, aprotinin, and 200 μg/mL PMSF. Lysates were cleared by centrifugation at 16,000 x g for 15 min at 4°C and analyzed by SDS-PAGE and autoradiography with chemiluminescence. Proteins were analyzed by immunoblotting using primary antibodies indicated above.

[4] = 25°C, Langmuir isotherm equilibrium fit, n=3, read-out: KD equilibrium
[5] = global fit, n=3, read-out: KD kinetic/global

T1 sequence (Q9NR19 whole entry): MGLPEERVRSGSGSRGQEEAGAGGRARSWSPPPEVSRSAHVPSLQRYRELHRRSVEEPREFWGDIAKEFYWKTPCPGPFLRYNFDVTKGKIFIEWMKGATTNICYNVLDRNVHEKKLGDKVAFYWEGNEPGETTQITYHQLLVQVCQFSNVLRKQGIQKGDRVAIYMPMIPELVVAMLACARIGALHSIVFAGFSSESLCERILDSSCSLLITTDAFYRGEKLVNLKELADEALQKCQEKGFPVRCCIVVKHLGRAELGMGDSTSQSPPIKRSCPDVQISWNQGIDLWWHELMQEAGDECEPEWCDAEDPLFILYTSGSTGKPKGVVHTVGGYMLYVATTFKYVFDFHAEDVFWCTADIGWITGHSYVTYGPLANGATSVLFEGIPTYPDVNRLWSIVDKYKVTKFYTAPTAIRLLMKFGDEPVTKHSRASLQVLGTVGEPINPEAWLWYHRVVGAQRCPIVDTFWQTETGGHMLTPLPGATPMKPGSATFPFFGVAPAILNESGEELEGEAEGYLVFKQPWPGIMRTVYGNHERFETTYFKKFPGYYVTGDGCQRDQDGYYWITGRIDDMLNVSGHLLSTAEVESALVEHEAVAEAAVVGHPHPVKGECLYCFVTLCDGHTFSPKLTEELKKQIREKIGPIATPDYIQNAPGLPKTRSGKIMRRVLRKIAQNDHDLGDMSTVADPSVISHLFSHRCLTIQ

Which clonogenic survival (MDA-MB-231BR cells) does the source give for C[C@H](N)C(=O)N1CCCC(c2ccccc2)(c2ccccc2)C1 [AD-1363] here?
Its clonogenic survival is “significant reduction in clonogenic survival”.

Which clonogenic survival (MDA-MB-231BR cells) does the source give for O=C(CCN1CCCC(c2ccccc2)(c2ccccc2)C1)NC1CC1 [AD-2441] here?
The clonogenic survival was “significantly reduce clonogenic survival”.

Which results are given for Cc1cccn2c(CC(=O)NCCC(c3ccccc3)c3ccco3)cnc12 (stereo not shown) [AD-3766]?
koff (ACSS2 [1]; n=3, read-out: koff): 0.359 s⁻¹; kon (ACSS2 [1]; n=3, read-out: kon): 5010 M⁻¹ s⁻¹; Kd (ACSS2 [1]; [4]): 70.6 µM; Kd (ACSS2 [1]; [5]): 77.6 µM; clonogenic survival (MDA-MB-231BR cells): significant reduction in clonogenic survival; Remaining (T=60min) ([2]; human liver microsomes): 0.0005; Remaining (NCF=60min) ([2]; human liver microsomes): 0.9639; CLint scaled ([2]; human, liver microsomes): 1360 mL/min/kg; Human Liver Microsome Stability T1/2 ([2]; human, liver microsomes): 54 s; microsomal CLint ([2]; human, liver microsomes): 1520 µL/min/mg; half-life ([2]; human, liver microsomes): 54.8 s

What does the source list for CN1CCC(O)(C(=O)NCCc2ccccc2Oc2ccccc2)CC1 [AD-7346]?
koff (ACSS2 [1]; n=3, read-out: koff): 0.399 s⁻¹; kon (ACSS2 [1]; n=3, read-out: kon): 10100 M⁻¹ s⁻¹; Kd (ACSS2 [1]; [4]): 39.8 µM; Kd (ACSS2 [1]; [5]): 49.4 µM; IC50 (ACSS2 [3]): 2.03 ± 0.21 µM

With O=C(O)Cc1ccccc1Nc1c(Cl)cccc1Cl [Diclofenac, reference compound] as the molecule, how does the “Remaining (T=60min)” value ([2]; human liver microsomes) read?
The value was 0.00044.

What about the “Remaining (NCF=60min)” value ([2]; human liver microsomes) of the same molecule?
The value was 0.8763.

What about the CLint scaled ([2]; human, liver microsomes) of the same molecule?
The CLint scaled was 236 mL/min/kg.

And the microsomal CLint ([2]; human, liver microsomes)?
The microsomal CLint was 262 µL/min/mg.

What about the half-life ([2]; human, liver microsomes) of the same molecule?
The half-life was 318 s.

For COCCc1ccc(OCC(O)CNC(C)C)cc1 (stereo not shown) [Metoprolol, reference compound], which Papp A→B (MDR1 (P-gp)) is on record?
The Papp A→B was 12.9 ×10⁻⁶ cm/s.

With C[C@]12CC[C@H]3[C@@H](CCC4=CC(=O)CC[C@@]43C)[C@@H]1CC[C@@H]2O [Testosterone, reference compound] as the molecule, how does the “Remaining (T=60min)” value ([2]; human liver microsomes) read?
Its value is 0.06959.

And the “Remaining (NCF=60min)” value ([2]; human liver microsomes)?
The value was 0.8976.

And the “CLint(liver)” value ([2]; human liver microsomes, scaled)?
The value was 80.3781 mL/min/kg.

What does the source list for COCCNC(=O)Nc1ccc2nc(-c3cccs3)c(-c3cccs3)nc2c1 [VY-3-249, reference compound]?
koff (ACSS2 [1]; n=3): 0.105 s⁻¹; kon (ACSS2 [1]; n=3): 1800 M⁻¹ s⁻¹; Kd (ACSS2 [1]; [4]): 53.2 µM; Kd (ACSS2 [1]; [5]): 66 µM; clonogenic survival (MDA-MB-231BR cells): significantly reduce clonogenic survival; protein levels of FASN (FASN): reduced protein levels of FASN; IC50 (ACSS2 [3]): 1.2 ± 0.49 µM
